# In patent US20220362168A1, “ADMINISTRATION REGIMES OF CANNABINOIDS IN COMBINATION WITH CHEMOTHERAPEUTICS AGAINST CANCER” (priority 2019, published 2022):
# “Also recorded” adds a separate entry of the source.
# Key:
# pERK = pERK western blotting relative to GAPDH (Example 3); format: cell-based; details: 100 nM, 1 μM or 10 μM, 48 h, FIG. 2, higher levels of CBD
# Procedure: An adenocarcinoma cell line, growing exponentially, was reset at a concentration of 1×10^4/ml and allowed to adhere overnight. Cannabidiol (CBD) was added at 100 nM, 1 μM, or 10 μM, and cells were harvested for standard western blotting techniques after 48 h. Immunoprobing was performed using anti-pERK antibodies, and the densities of each band determined. These values were then expressed relative to a GAPDH loading control.
# [1] = system: circulating tumour cells (CTCs); assay: Circulating tumour cell test before and after treatment; format: in vivo, human; details: for Circulating tumour cells (CTCs): CBD only
# Procedure: (§1) The majority of the patients were assessed using a circulating tumour cell test before and after treatment, since this is cheaper than carrying out repeated scans. A number of patients however, as a matter of a normal treatment course, had relevant scans.
# [2] = Side effects / tolerated dose in patients; format: in vivo, human; details: cancer patients, up to 30 mg twice a day; maximum tolerated dose unable to be defined
# Description: (§2) The minimum duration of treatment required for CBD was six months, but many continued for longer. Less than six months appeared inadequate and had little effect, and therefore cases in which CBD was used for less than six months have been defined as un-assessable, and not included in the current cohort of 119 cases.
# cancer patients = assay: Clinical outcome of 119 cancer patients given synthetic pharmaceutical-grade CBD; format: in vivo, human; details: for Extended median survival / Stable disease / Died / No effect/result / Slowed progression / Tumour free: number of patients
# Procedure: Patients were given synthetic, pharmaceutical-grade CBD (STI Pharmaceuticals), registered under the Pharmaceutical Specials scheme in oily drops at 5% (w/v) in 20 ml bottles. Each drop contained 1 mg of synthetic CBD in neutral oil. This was prescribed on an informed consent basis. 119 cancer patients decided to have this treatment (Table 1), and most of them had metastatic cancers. Of the 119 patients, 28 were given CBD as the only treatment.
# as §1
# The average dose was 10 mg twice a day. For increased tumour mass, the dose was increased, in some cases up to 30 drops twice a day (30 mg). In a number of cases where stable disease was present, the dose was reduced to five drops twice a day (5 mg). In some cases, Sativex, which is licensed for use in multiple sclerosis, was used in conjunction with CBD as a source of THC, which synergises with CBD. A fraction of the dose used for multiple sclerosis was used. […] Some of the patients reverted to Cannabis oil bought on the Internet, and following this, 80% of these cases relapsed.
# as §2
# [3] = system: adenocarcinoma cancer cell line; assay: Cell viability by cell counting with trypan blue (Example 2); format: cell-based; details: 0.1, 1 or 10 μM, 48 h, FIG. 1
# Description: An adenocarcinoma cancer cell line, growing exponentially, was reset at a concentration of 1×10^4/ml and allowed to adhere overnight.
# tumour = assay: Scans and examination of tumour in individual patients; format: in vivo, human
# Procedure: as §1
# Clear objective evidence of potential efficacy was sought where no other treatment option was available. The most impressive case was a patient with an anaplastic ependymoma, a very rare brain tumour. The patient had had all standard treatments, surgery on two occasions followed by chemotherapy and conformal photon radiotherapy. No further treatment options were available to them when treatment on CBD started.
# Another impressive case was a patient with progressive tanycytic ependymoma Grade 2, treated with biopsy and radical radiotherapy for two years. They refused chemotherapy, and had no further treatment options. They started on pharmaceutical-grade synthetic CBD a year after radiotherapy ended, at a dose of 10 drops twice a day, three days on and three days off (10 mg). Prior to this they had been taking, for some time, metformin, mebendazole, doxycycline and atorvastatin from an oncology clinic in Central London.
# At that point the patient stopped taking pharmaceutical-grade synthetic CBD and switched to Cannabis oil extract obtained from an internet website. […] They have since restarted pharmaceutical-grade synthetic CBD and throughout continued to take the metformin, atorvastatin, doxycycline and mebendazole. So, the only change had been stopping the pharmaceutical-grade synthetic CBD and switching to Cannabis oil extract obtained on the Internet.
# [4] = Glioblastoma multiforme, 7 total cases
# [5] = Miscellaneous cancers, 15 total cases
# [6] = Non-Hodgkin's lymphoma, 8 total cases
# [7] = Non-small cell lung, 2 total cases
# [8] = Total of all cancer types, 119 total cases
smiles,measurement,setting,value
"C=C(C)[C@@H]1CCC(C)=C[C@H]1c1c(O)cc(CCCCC)cc1O [CBD, cannabidiol]",pERK relative to controls,pERK,increased
same,"Circulating tumour cells (CTCs), first tests","[1]; 62/female breast cancer, CBD as only treatment, when first seen","tests which showed 10.6 cells per 7.5 ml. Subsequent tests 9 months later, 12 months later, two years later and"
same,Circulating tumour cells (CTCs),"[1]; 62/female breast cancer, 9 months later",7.3 cells/7.5 ml
same,Circulating tumour cells (CTCs),"[1]; 62/female breast cancer, 12 months later",6.8 cells/7.5 ml
same,Circulating tumour cells (CTCs),"[1]; 67/female lobular breast cancer, 12 months later",7.5 cells/7.5 ml
same,Circulating tumour cells (CTCs),"[1]; 67/female lobular breast cancer, 18 months later",6.8 cells/7.5 ml
same,Circulating tumour cells (CTCs),"[1]; 67/female lobular breast cancer, 30 months later",3.0 cells/7.5 ml
same,"Circulating tumour cells (CTCs), initial","[1]; 67/female lobular breast cancer, initial","method of treatment. Initial CTCs were 9.3 cells per 7.5 ml. Follow-up measurements 12 months later, 18 months"
same,"Circulating tumour cells (CTCs), initial","[1]; 72/male prostate cancer, initial value before CBD effect",8.1 cells/7.5 ml
same,Circulating tumour cells (CTCs),"[1]; breast cancer, three years later",3.9 cells/7.5 ml
same,Circulating tumour cells (CTCs),"[1]; breast cancer, two years later",5.0 cells/7.5 ml
same,"Circulating tumour cells (CTCs), first reduction","[1]; patient prostate cancer, CBD alone 10 mg twice a day, three days on/off",5.9 cells/7.5 ml
same,Side effects,[2],complete absence of side effects
same,Clinical status,"cancer patients; 62/female breast cancer, CBD only, no symptoms",currently stable
same,Time to death,"cancer patients; 65/female oesophageal cancer, CBD only treatment, expected survival of three months",weight. They died 14 months later.
same,Clinical condition,"cancer patients; 65/female oesophageal cancer, CBD only treatment, six months later, regained weight",treatments and investigations. We last saw their six months later when they were looking well and had in fact regained
same,Extended median survival,"cancer patients; Anaplastic ependymoma, 3 total cases",3
same,Extended median survival,"cancer patients; Bladder, 2 total cases",1
same,Stable disease,"cancer patients; Bladder, 2 total cases",1
same,Died,"cancer patients; Breast, 39 total cases",6
same,Extended median survival,"cancer patients; Breast, 39 total cases",8
same,No effect/result,"cancer patients; Breast, 39 total cases",3
same,Slowed progression,"cancer patients; Breast, 39 total cases",3
same,Stable disease,"cancer patients; Breast, 39 total cases",21
same,Tumour free,"cancer patients; Breast, 39 total cases",7
same,Effect of short treatment duration,cancer patients; CBD used for less than six months,little effect
same,Died,"cancer patients; Colorectal, 13 total cases",6
same,Extended median survival,"cancer patients; Colorectal, 13 total cases",9
same,No effect/result,"cancer patients; Colorectal, 13 total cases",1
same,Slowed progression,"cancer patients; Colorectal, 13 total cases",1
same,Tumour free,"cancer patients; Colorectal, 13 total cases",1
same,Extended median survival,"cancer patients; DIPG, 1 total case",1
same,Died,cancer patients; [4],3
same,Extended median survival,cancer patients; [4],4
same,Tumour free,"cancer patients; Head and Neck, 2 total cases",1
same,Died,cancer patients; [5],1
same,Extended median survival,cancer patients; [5],5
same,No effect/result,cancer patients; [5],1
same,Slowed progression,cancer patients; [5],1
same,Stable disease,cancer patients; [5],6
same,Tumour free,cancer patients; [5],2
same,Stable disease,"cancer patients; Neuroendocrine, 1 total case",1
same,Died,cancer patients; [6],1
same,Stable disease,cancer patients; [6],6
same,Tumour free,cancer patients; [6],1
same,Died,cancer patients; [7],2
same,Extended median survival,cancer patients; [7],2
same,Died,"cancer patients; Ovarian, 6 total cases",3
same,Extended median survival,"cancer patients; Ovarian, 6 total cases",5
same,Slowed progression,"cancer patients; Ovarian, 6 total cases",1
same,Died,"cancer patients; Pancreatic, 4 total cases",2
same,Extended median survival,"cancer patients; Pancreatic, 4 total cases",2
same,Died,"cancer patients; Prostate, 16 total cases",3
same,Extended median survival,"cancer patients; Prostate, 16 total cases",3
same,Stable disease,"cancer patients; Prostate, 16 total cases",10
same,Died,cancer patients; [8],27
same,Extended median survival,cancer patients; [8],43
same,No effect/result,cancer patients; [8],5
same,Slowed progression,cancer patients; [8],8
same,Stable disease,cancer patients; [8],45
same,Tumour free,cancer patients; [8],12
same,Clinical effectiveness of dosing pattern,cancer patients; three days on and three days off versus continuous dose,more effective
same,Viability of cancer cells,[3],inactive; also recorded: unaffected
same,Tumour diameter in left breast,"tumour; 65/female breast cancer, initially 15 cm, CBD plus half course of radiotherapy, last appointment",treatment course. They have continued on CBD alone and on their last appointment the tumour in their left breast was 2 cm
same,Axillary nodes,"tumour; 65/female breast cancer, initially palpable left axillary nodes, last appointment","cm in diameter, with no palpable axillary nodes."
same,Subsequent scans,"tumour; 68/female breast cancer with bone metastases, CBD following local radiotherapy",subsequent scans showed stable disease. They have had no treatment other than CBD following radiotherapy.
same,Subsequent scans,"tumour; person, anaplastic ependymoma, CBD only treatment",disease stability
same,Decrease of tumour volume (scan),"tumour; person, anaplastic ependymoma, CBD only treatment, after ten months",~60%
same,Scan result,"tumour; person, tanycytic ependymoma Grade 2, 10 mg twice a day three days on/off, six months",tumour reduction
